Experimental data as given in patent publication US9555061B2, “Synthesis and analysis of compounds capable of inducing differentiation of human mesenchymal stems cells into hepatocytes” (National University Corporation Torrori University, priority 2011, dated 2017).
Like-named read-outs stand apart in the source and are kept apart here.

What was measured:
[1] = system: UE7T-13 cells; test: Periodic acid-Schiff (PAS) staining (UE7T-13); assay type: cell-based, human
Description: (3-4) Periodic Acid-Schiff (PAS) Staining (UE7T-13) A cover glass (22×22 mm, […]) was sterilized with 70% EtOH and placed in a 6-well plate. Next, cells were seeded on the cover glass and cultured in a medium containing IC-2, etc. At 8, 16, and 24 days after the initiation of the culture, the cells were washed twice with PBS. Then, the cells were treated with 4% paraformaldehyde/PBS for 20 min and fixed onto the cover glass. As a negative control, 10 mg/ml of α-amylase (10 mg/ml; in 0.1 M phosphate buffer solution at pH 6.8) was added, and the cells were incubated therewith at 37° C. for 1 h to digest their glycogen. Subsequently, 1% aqueous periodic acid was used for oxidation treatment for 10 min. After that, the cells were treated with a Schiff reagent for 15 min to stain glycogen. Then, the cells were washed three times with aqueous sulfurous acid and were washed three times with distilled water. After their nuclei were stained with Mayer's hematoxylin, 50% glycerol diluted with PBS was used to mount the cover glass. Finally, the cells were observed under a light microscope. The cells which had been cultured with 0.1% DMSO were used as a control.

[2] = system: β-catenin/Tcf complex; conditions: Drug Discov. Today 2005, 10, 1467-1474; cited from earlier work
[3] = system: UE7T-13 cells; conditions: human
[4] = system: Wnt/β-catenin signaling pathway; test: Ability of inhibiting Wnt/β-catenin pathway, luciferase assay (UE7T-13); assay type: cell-based, human; conditions: 8 days after the treatment; pTCF4-CMV-luciferase reporter
Excerpt: FIG. 3 is a schematic diagram illustrating how to establish a human mesenchymal stem cell stably expressing a β-catenin/TCF4/luciferase reporter gene. FIG. 3 illustrates how to construct pTCF4-CMVpro-GL4.20 plasmid by using a luciferase expression vector. The pTCF4-CMVpro-GL4.20 plasmid contains three TCF4 sequences […] upstream of a CMV promoter to express luciferase. In addition, pCMVpro-GL4.20 plasmid was constructed as a control. The resulting plasmids were each linearized, introduced into UE7T-13 by electroporation, and selected using puromycin (0.25 μg/ml) supplemented in a medium. Puromycin-resistant cells were cloned and used for a luciferase assay.
The cell line having a vector stably expressing luciferase was seeded on a 24-well plate, and was cultured at 37° C. At the next day, the medium was changed to a medium containing IC-2, etc., and the cell line was further cultured at 37° C. After that, at days 1, 4, and 8, a luciferase assay system (Promega) was used and the luciferase activity was read with a fluorescence plate reader (ARVO) at a wavelength of 556 nm.

[5] = system: clinical specimen-derived mesenchymal stem cells; test: PAS staining in clinical specimen-derived mesenchymal stem cells; assay type: cell-based, human; conditions: day 8, PN-3-13 20 μM, IC-2 40 μM
Description: PAS staining was performed according to the following procedure. A cover glass that had been sterilized with 100% ethanol was placed on a 12-well plate. Cells were seeded on the cover glass at a cell density of 1.8×10^4 cells/cm^2. This day was designated as day 0. At day 1 corresponding to the next day, each medium was changed to a medium containing HC-2 (at a final concentration of 20 μM), PN-3-13 (at a final concentration of 20 μM), IC-2 (at a final concentration of 40 μM), or 0.1% DMSO. At day 4, the medium was changed in a manner similar to that at day 1, and the cells were cultured until day 8. At day 8, the cells were washed twice with PBS and were fixed with 4% paraformaldehyde for 30 min. As a negative control, α-amylase (Nacalai Tesque) at a final concentration of 10 mg/ml was added, and the cells were incubated therewith at 37° C. for 1 h to digest their glycogen. Subsequently, the cells were treated with 1% aqueous periodic acid for 5 min. Then, the cells were treated with a Schiff reagent (Nacalai Tesque) for 15 min to stain glycogen. After that, the cells were washed three times with aqueous sulfurous acid and were then washed three times with distilled water. The nuclei were stained with Mayer's Hematoxylin (MUTO PURE CHEMICALS CO., LTD.) for 1 min. […]

[6] = system: CD90+CD271+ bone marrow-derived mesenchymal stem cells; test: Urea assay in CD90+CD271+ bone marrow-derived mesenchymal stem cells; assay type: cell-based, human; conditions: hexachlorophene 4 μM, PN-3-13 20 μM, IC-2 40 μM; day 8 plus 96 h ammonium chloride
Description: A urea assay was performed according to the following protocol. CD90^+CD271^+ bone marrow-derived mesenchymal stem cells were seeded on a 24-well plate at a cell density of 1.8×10^4 cells/cm^2. This day was designated as day 0. At day 1 corresponding to the next day, each medium was changed to a medium containing hexachlorophene (at a final concentration of 4 μM), HC-2 (at a final concentration of 20 μM), PN-3-13 (at a final concentration of 20 μM), IC-2 (at a final concentration of 40 μM), or 0.1% DMSO. At day 4, the medium was changed in a manner similar to that at day 1, and the cells were cultured until day 8. At day 8, the medium was removed, and replaced with a medium containing ammonium chloride (Nacalai Tesque) at a final concentration of 5 mM. The cells were further cultured for 96 h. At 96 h after the addition of ammonium chloride, levels of urea in the medium were determined using a QuantiChrom Urea Assay Kit (BioAssay Systems) according to the attached protocol by reading the absorbance at a wavelength of 520 nm with a microplate reader. The levels of urea were calculated based on a standard sample according to the attached calculation method. As a negative control for the urea assay, used were CD90^+CD271^+ bone marrow-derived mesenchymal stem cells that were seeded one day before the day of the immunostaining and were not subjected to the differentiation induction.

[7] = system: clinical specimen-derived mesenchymal stem cells; test: Immunofluorescence staining in clinical specimen-derived mesenchymal stem cells; assay type: cell-based, human; conditions: day 8; PN-3-13 20 μM, IC-2 40 μM
Description: A cover glass that had been sterilized with 100% ethanol was placed on a 12-well plate. Cells were seeded on the cover glass at a cell density of 1.8×10^4 cells/cm^2. This day was designated as day 0. At day 1 corresponding to the next day, the medium was changed to a medium containing HC-2 (at a final concentration of 20 μM), PN-3-13 (at a final concentration of 20 μM), IC-2 (at a final concentration of 40 μM), or 0.1% DMSO. At day 4, the medium was changed in a manner similar to that at day 1. At day 8, the culture medium was removed and the cells were washed twice with PBS. Then, in order to perform immunostaining of albumin, the cells were fixed for 20 min with 4% paraformaldehyde (Nacalai Tesque) containing 8% sucrose (Wako Pure Chemical Industries, Ltd.). For immunostaining of C/EBPα or CYP1A1, the cells were fixed for 20 min with 4% paraformaldehyde. After that, the cells were permeated with 0.2% Triton X-100 (Wako Pure Chemical Industries, Ltd.) for 10 min and were then blocked in 3% BSA (Nacalai Tesque) at room temperature for 30 min without shaking.
After the primary antibody reaction, the cells were washed with 0.1% BSA/PBS. […] The cells were incubated with each antibody, and were kept in a dark condition at room temperature for 1 h to carry out a secondary antibody reaction. Their nuclei were stained with DAPI (Cell Signaling Technology Inc.). […]

[8] = system: UE7T-13 cells; test: Proliferation potential (toxicity), MTT assay (UE7T-13); conditions: days 2, 4, 8 of treatment
[9] = system: clinical specimen-derived mesenchymal stem cells; test: RT-PCR of hepatocyte differentiation marker in clinical specimen-derived mesenchymal stem cells; assay type: cell-based, human; conditions: hexachlorophene 4 μM, HC-2 20 μM, PN-3-13 20 μM, IC-2 40 μM
Description: A fresh bone marrow aspirate was collected under informed consent from a patient (a person) with osteoarthritis who underwent replacement arthroplasty at the Department of Orthopedic Surgery, Tottori University Hospital. This aspirate was subjected to density gradient centrifugation using ficoll (Amersham Biosciences) to separate bone marrow mononuclear cells (FIG. 31). These bone marrow mononuclear cells were suspended in 1 ml of Hanks' balanced salt solution (HBSS, Gibco, Life Technologies Corp.) supplemented with a 100-fold diluted APC-labeled anti-CD90 antibody, a 407-fold diluted PE-labeled anti-CD271 antibody, and 2% fetal bovine serum (FBS, Defined, Thermo Fisher Scientific Inc.), and were stained on ice for 30 min. A flow cytometer (MoFlo XDP, Beckman Coulter Inc.) was used to selectively separate mesenchymal stem cells. The resulting cells were cultured in Dulbecco's Modified Eagle's Medium (Low Glucose, Gibco, Life Technologies Corp.) containing 20% FBS, 100 U/ml penicillin, […] streptomycin (Nacalai Tesque), and 20 ng/ml basic fibroblast growth factor (TRANS GENIC INC., Ltd.) on a 35-mm dish under conditions at 37° C. and 5% CO2. The medium was changed every 4 days. After colonies were formed, the cells were detached using a 0.025% trypsin/1 mM EDTA solution (Nacalai Tesque), split on a 100-mm dish, and cultured under conditions at 37° C. and 5% CO2. Then, the cells which were kept 70 to 80% confluent were detached using trypsin treatment. These cells in one dish were divided into four dishes for passage.
Cells were seeded on a 6-well plate at a cell density of 1.8×10^4 cells/cm^2. This day was designated as day 0. At day 1 corresponding to the next day, the medium was changed to a medium containing any one of hexachlorophene (at a final concentration of 4 μM), HC-2 (at a final concentration of 20 μM), PN-3-13 (at a final concentration of 20 μM), IC-2 (at a final concentration of 40 μM), and 0.1% DMSO. […]

SMILES | intracellular glycogen accumulation compared with negative control (0.1% DMSO) [1] | antagonism of transcriptional activation by a β-catenin/Tcf complex [2] | concentration with very low cell toxicity toward UE7T-13 cells [3] | concentration that significantly inhibited the Wnt/β-catenin signaling pathway [4] | cellular glycogen accumulation compared with negative control (0.1% DMSO) [5] | cellular urea synthesis compared with negative control (0.1% DMSO) [6] | levels of expression of albumin, C/EBPα, and CYP1A1 compared with negative control (0.1% DMSO) [7] | concentration with very low cell toxicity toward UE7T-13 cells [8] | expression of albumin [9]
O=C1[C@H](Cc2ccc(O)cc2)N2C(=O)CCN(C(=O)NCc3ccccc3)[C@H]2CN1Cc1cccc2ccccc12 [ICG-001] | did not increase | potent antagonist | – | – | – | – | – | – | –
COc1c(Cl)cc(Cl)c(Cl)c1Cc1c(Cl)c(Cl)cc(Cl)c1OC [HC-1, bis(2,3,5-trichloro-6-methoxyphenyl)methane] | – | – | ≤ 8 µM | ≥ 2 µM | – | – | – | – | –
O=C(N/N=C/c1c(F)c(F)c(F)c(F)c1F)c1ccccc1Oc1ccccc1 [PN-3-13, N′-[(E)-pentafluorophenylmethylidene]-2-phenoxybenzohydrazide] | – | – | – | ≥ 9 µM | apparent increase | apparent increase | apparently increased | ≤ 10 µM | induced
